Measured values published in patent US20230039836A1, “AROMATIC SULPHONAMIDES DERIVATIVES THAT INHIBITS PDI A3, THEIR SYNTHESIS AND USE” (Uniwersytet Jagiellonski, priority 2020, published 2023).
Converted amounts (≈) assume the structure as drawn. Read-outs that look alike come from different tables or passages of the source.

Assays:
HT-29 [1] = assay: Sulforhodamine B antiproliferative assay, 72 h; type: cell-based, human; settings: normal (21% of oxygen), 72-hour exposition
Procedure: (§1) Anticancer activity of PDI A1-inhibitors has been also tested in vitro in antiproliferative essay in normoxic and hypoxic conditions as well in estrogen-stimulated cancer cells. In the experiment, cells were seeded on 96-well plates (Sarstedt, Germany) in appropriate culture medium at a density of 10^5 cells/mL 24 h before adding the tested compounds. Cells were treated with each compound in four concentrations in the range 0.1-100 ug/mL. […] After 72 h of compound treatment at 37° C., 5 % CO2 humid atmosphere and in wo different oxygen level conditions: 21% - normal and <1% - hypoxia. In some experiments, the MDA-MB-231 and MCF-7 cells were seeded with or without 200 nM estradiol and after 24 h the tested compounds were added. A previously described sulforhodamine B antiproliferative assay was used with minor modifications (Skehan P et al., 1990). Briefly, cells were fixed with 50 µL/well of 50% (w/v) trichloroacetic acid (Avantor Performance Materials, Gliwice, Poland). After 1 h incubation, plates were washed several times with tap water and 50 µL of 0.4% (w/v) solution of sulforhodamine B (Sigma-Aldrich, Germany) in 1% (v/v) acetic acid (Avantor Performance Materials, Gliwice, Poland) was added to each well. After 30 min incubation at room temperature, unbound dye was washed out with 1% (v/v) acetic acid, whereas bound dye was solubilized with 10 mM unbuffered TRIS (Avantor Performance Materials, Gliwice, Poland) solution. The entire procedure was performed using a BioTek EL-406 washing station (BioTek Instruments, USA). After additional 30 min, absorbance was read using a Biotek Hybrid H4 reader (BioTek Instruments, USA) at 540 nm wavelength. MTT assay was used alternatively for HL-60 cell line and in the experiment in which estrogens are added (specified in the table legend). Absorbance was measured using a Biotek Hybrid H4 reader at 570 nm wavelength for MTT assay.
(§2) Compounds at each concentration were tested in triplicate in a single experiment and each experiment was repeated at least three times independently.
(§3) Results of in vitro antiproliferative effects are shown in Table 3 and Table 4 and are presented as mean IC50 ± SD calculated using the Prolab-3 system based on Cheburator 0.4 software.

MDA-MB-231 [2] = assay: Sulforhodamine B antiproliferative assay, 72 h, normal and hypoxia; type: cell-based, human; settings: 72-hour exposition; for IC50 [µg/ml] MDA-MB-231 hypoxia: hypoxia (<1% of oxygen); for IC50 [µg/ml] MDA-MB-231 normal: normal (21% of oxygen)
Procedure: as §1, §2, §3

MCF-7 [3] = assay: as above; type: cell-based, human; settings: 72-hour exposition; for IC50 [µg/ml] MCF-7 hypoxia: hypoxia (<1% of oxygen); for IC50 [µg/ml] MCF-7 normal: normal (21% of oxygen)
Procedure: as §1, §2, §3

Caco-2 = assay: Sulforhodamine B antiproliferative assay, 72 h; type: cell-based, human; settings: normal (21% of oxygen), 72-hour exposition
HL-60 = assay: MTT antiproliferative assay, 72 h; type: cell-based; settings: Homo sapiens, 72 hours exposition, read-out: IC50 [µg/ml] HL-60 normal
Procedure: as §1, §2, §3
(§4) Statistical analysis: Unpaired t test. *p<0.05 as compared to appropriate cells not pretreated with estradiol. MTT assay was used for antiproliferative activity assessment.

HT-29 [4] = assay: MTT antiproliferative assay, 72 h; type: cell-based; settings: Homo sapiens, 72 hours exposition, read-out: IC50 [µg/ml] HT-29 normal
Procedure: as §1, §2, §3, §4

MDA-MB-231 [5] = assay: MTT antiproliferative assay, 72 h, with or without estradiol; type: cell-based, human; settings: for IC50: Homo sapiens, MDA-MB-231, 72 hours exposition, MTT
Procedure: as §1, §2, §3, §4

MCF-7 [6] = assay: as above; type: cell-based, human; settings: for Selectivity index (SI): IC50 of MCF-10A/ IC50 of MCF-7 / IC50: 72 hours exposition; for IC50: Homo sapiens, MCF7, MTT
Procedure: as §1, §2, §3, §4

[7] = system: HT-1080 (human fibrosarcoma); assay: MTT antiproliferative assay, 48 h; type: cell-based; settings: 48-hour exposition, read-out: Cytotoxicity, IC50, µM HT-1080
Procedure: (§5) About 2000-4000 cells per well (depending on line nature) were placed in 96-well plates and after 24 h compounds were added to the wells. Untreated cells were used as a control. The plates were incubated for 48 h, 37° C., 5% CO2. The number of surviving cells was determined using 3-(4,5-dimethylthiazol-2-yl)-2,5-diphenyltetrazolinium bromide (MTT). MTT-test: after incubating culture medium was removed and 200 µL fresh medium with 20 µL MTT (2 mg/mL in HBSS) was added in each well of the plate. After incubation (3 hr., 37° C., 5% CO2), the medium with MTT was removed and 200 µL DMSO were added at once to each sample. The samples were tested at 540 nm on Thermo Scientific Multiskan EX microplate photometer. The half-maximal inhibitory concentration (IC50) of each compound was calculated using Graph Pad Prism® 3.0.

[8] = system: MDA-MB-231 (human mammary breast adenocarcinoma); assay: MTT antiproliferative assay, 48 h; type: cell-based; settings: Homo sapiens, MDA-MB-231, 48-hour exposition, read-out: Cytotoxicity, IC50, µM MDA-MB-231
Procedure: as §5

[9] = system: Caco-2 (human colon adenocarcinoma); assay: MTT antiproliferative assay, 48 h; type: cell-based; settings: Homo sapiens, Caco-2, 48-hour exposition, read-out: Cytotoxicity, IC50, µM CaCo-2
Procedure: as §5

[10] = system: MCF-7 (human breast adenocarcinoma, estrogen-positive); assay: MTT antiproliferative assay, 48 h; type: cell-based; settings: Homo sapiens, MCF7, 48-hour exposition, read-out: Cytotoxicity, IC50, µM MCF-7
Procedure: as §5

PDI A1 = molecular target: T1, PDI A1 (Homo sapiens, UniProt P07237); assay: Insulin turbidometric assay, inhibition of PDI A1; type: biochemical; settings: insulin reduction, turbidity at 650 nm, 60 min incubation at 37° C.; read-out: Inhibition of PDI A1 (EC 50)
T1 construct: purchased Mybiosource; host or cells: E. coli
Procedure: The inhibitory effects compounds of invention on activity of PDI A1 was assess based on the insulin turbidometric assay. Enzymatic activity of PDIA1 was confirmed by measuring the turbidity increase at 650 nm due to insulin reduction. The assay mixture was prepared by addition 10 ug/ml PDIA1 (E.coli recombinant protein; Mybiosource), 0.1 mM phosphate buffer (pH7.6), 1 mM EDTA, 0.087 mM DTT and with or without tested compound and was incubated for 60 min, at 37° C. Reaction was started by addition insulin and DTT. Final concentration of insulin and DTT in assay mixture was 0.15 mM and 0.174 mM, respectively. Turbidity was detected at 650 nm against reference samples without PDI A1s. The measurements were performed at 650 nm using 120-s recordings.

[11] = 200 nM estradiol, read-out: IC50 [µg/ml] MDA-MB-231 + estradiol
[12] = not pretreated with estradiol, read-out: IC50 [µg/ml] MDA-MB-231 normal
[13] = 200 nM estradiol, read-out: IC50 [µg/ml] MCF-7 + estradiol
[14] = not pretreated with estradiol, read-out: IC50 [µg/ml] MCF-7 normal

T1 sequence (P07237 18-508, species assumed): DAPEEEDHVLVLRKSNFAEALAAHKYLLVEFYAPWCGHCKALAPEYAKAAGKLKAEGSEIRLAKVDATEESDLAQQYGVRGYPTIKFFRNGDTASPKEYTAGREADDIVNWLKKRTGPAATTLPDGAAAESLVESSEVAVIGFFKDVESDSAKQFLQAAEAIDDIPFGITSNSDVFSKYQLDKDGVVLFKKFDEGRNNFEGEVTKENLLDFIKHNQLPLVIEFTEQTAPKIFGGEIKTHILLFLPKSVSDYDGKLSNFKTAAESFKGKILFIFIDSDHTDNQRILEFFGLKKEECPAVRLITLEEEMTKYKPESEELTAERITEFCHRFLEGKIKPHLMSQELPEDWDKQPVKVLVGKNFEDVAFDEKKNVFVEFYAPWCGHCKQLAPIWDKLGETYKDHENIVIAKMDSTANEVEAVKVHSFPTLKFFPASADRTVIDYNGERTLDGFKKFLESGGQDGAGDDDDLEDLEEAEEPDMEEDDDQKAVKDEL

IC50 (MDA-MB-231 [5]; [11])	IC50 (MCF-7 [6]; [13])	EC50 (PDI A1)	SMILES	IC50 [µg/ml] HT-29 normal (HT-29 [1])	IC50 [µg/ml] MDA-MB-231 hypoxia (MDA-MB-231 [2])	IC50 [µg/ml] MDA-MB-231 normal (MDA-MB-231 [2])	IC50 [µg/ml] MCF-7 hypoxia (MCF-7 [3])	IC50 [µg/ml] MCF-7 normal (MCF-7 [3])	IC50 [µg/ml] Caco-2 normal (Caco-2)	IC50 (HL-60)	IC50 (HT-29 [4])	IC50 (MDA-MB-231 [5]; [12])	Selectivity index (SI): IC50 of MCF-10A/ IC50 of MCF-7 (MCF-7 [6])	IC50 (MCF-7 [6]; [14])	Change in sensitivity of MCF-7 after addition of estradiol (MCF-7 [6]; with estradiol versus without)	IC50 [7]	IC50 [8]	IC50 [9]	IC50 [10]	Change of antiproliferative activity towards MDA-MB-231 during simultaneous incubation with estradiol (MDA-MB-231 [5]; with estradiol versus without)
			O=C(C1CC1)N1CCN(Cn2sc3ccccc3c2=O)CC1 [LOC14, reference compound]	12.6 ± 8.4 µg/mL (≈ 39.7 µM)	2.6 ± 0.5 µg/mL (≈ 8.19 µM)	2.8 ± 0.4 µg/mL (≈ 8.82 µM)	3.9 ± 0.3 µg/mL (≈ 12.3 µM)	4.4 ± 0.9 µg/mL (≈ 13.9 µM)	9.1 ± 3.4 µg/mL (≈ 28.7 µM)											
17.7 ± 2.1 µg/mL	10.4 ± 2.4 µg/mL		COC(=O)C1CN1S(=O)(=O)c1cccc2c(N(C)C)cccc12 (stereo not shown) [Compound C-3326, Methyl 1-[[5-(dimethylamino)-1-naphthyl]sulfonyl]aziridine-2-carboaylate]							1.9 ± 0.6 µg/mL (≈ 5.68 µM)	39.2 ± 6.5 µg/mL (≈ 117 µM)	15.7 ± 3.1 µg/mL (≈ 47 µM)	4.84	5.4 ± 1.7 µg/mL (≈ 16.1 µM)	slight decrease in sensitivity	100 ± 5 µM	169 ± 20 µM	170 ± 20 µM	349 ± 13 µM	
			COc1ccc(N2C(=O)/C(=C\c3ccc([N+](=O)[O-])s3)SC2=S)cc1 [CCF642, reference compound]	0.4 ± 0.05 µg/mL (≈ 1.06 µM)	0.3 ± 0.2 µg/mL (≈ 0.793 µM)	0.3 ± 0.1 µg/mL (≈ 0.793 µM)	0.6 ± 0.6 µg/mL (≈ 1.59 µM)	0.7 ± 0.5 µg/mL (≈ 1.85 µM)	0.4 ± 0.1 µg/mL (≈ 1.06 µM)											
28 ± 1.7 µg/mL	18.4 ± 4.3 µg/mL	0.03 µM	CCCCCCc1ccc(S(=O)(=O)N2CC2C(N)=O)cc1 (stereo not shown) [Compound C-3389, 1-(4-Hexylphenyl)sulfonylaziridine-2-carboxamide]							2.8 ± 0.8 µg/mL (≈ 9.02 µM)	31.2 ± 6.7 µg/mL (≈ 101 µM)	23.2 ± 1 µg/mL (≈ 74.7 µM)	0.23	26.7 ± 4.5 µg/mL (≈ 86 µM)		36 ± 3 µM	32 ± 3 µM	49 ± 2 µM	47 ± 6 µM	slight decrease of antiproliferative activity
